ChEMBL document CHEMBL5505987 (Eur J Med Chem, 2024)
Activity calls are given as the source filed them. No cut-off for these calls is given here.

Key:
[1] = Cytotoxicity against human BEAS-2B cells assessed as cell viability by MTT assay; format: toxicity, cell-based
[2] = test system: HeLa; assay: Cytotoxicity against human HeLa cells assessed as cell viability by MTT assay; format: functional, cell-based
[3] = test system: MDA-MB-231; assay: Anti-metastatic activity in human MDA-MB-231 cells assessed as increase in E-cadherin protein level at 1 to 4 uM by Western blotting analysis; format: functional, cell-based; settings: dose 1-4 µM
[4] = test system: MDA-MB-231; assay: Induction of apoptosis in human MDA-MB-231 cells assessed as increase in Bax expression at 1 to 4 uM incubated for 24 hrs by Western blotting analysis; format: functional, cell-based; settings: dose 1-4 µM
[5] = test system: 4T1; assay: Cytotoxicity against mouse 4T1 cells assessed as cell viability by MTT assay; format: functional, cell-based
[6] = test system: MDA-MB-231; assay: Anti-tumor activity against human MDA-MB-231 cells assessed as change in TGF-beta1/Smad signaling pathway by measuring fluorescence intensity of p-Smad3 level at 2 to 4 uM after 24 hrs incubation by immunofluorescence staining assay; format: functional, cell-based; settings: dose 2-4 µM
[7] = test system: MDA-MB-231; assay: Anti-tumor activity against human MDA-MB-231 cells assessed as change in expression of genes involved in TGF-beta1/Smad signaling pathway measured after 24 hrs incubation by RNA-Seq analysis; format: functional, cell-based
[8] = test system: 4T1; assay: Induction of cell cycle arrest in mouse 4T1 cells assessed as accumulation of cells at G0/G1 phase at 1.5 uM measured after 24 hrs by PI staining by flow cytometry; format: functional
[9] = test system: MDA-MB-231; assay: Anti-tumor activity against human MDA-MB-231 cells assessed as decrease in cell viability at 8 uM incubated for 24 hrs in presence of SB-431542 TGF-beta signaling inhibitor by MTT assay; format: functional, cell-based
[10] = test system: MDA-MB-231; assay: Induction of cell cycle arrest in human MDA-MB-231 cells assessed as accumulation of cells at G0/G1 phase at 1 uM measured after 24 hrs by PI staining by flow cytometry; format: functional
[11] = test system: 4T1; assay: Inhibition of colony formation in mouse 4T1 cells assessed as reduction in colony formation treated for 10 days medium refreshed every two days by crustal violet based assay; format: functional, cell-based; settings: time 10.0 day
[12] = Cytotoxicity against human HFF cells assessed as cell viability by MTT assay; format: toxicity, cell-based
[13] = test system: MDA-MB-231; assay: Induction of apoptosis in human MDA-MB-231 cells assessed as increase in apoptotic rate at 4 uM incubated for 24 hrs by Annexin V-FITC/PI double staining by flow cytometry; format: functional
[14] = test system: MDA-MB-231; assay: Anti-invasive activity in human MDA-MB-231 cells assessed as reduction in cell invasion incubated for 24 hrs by Transwell assay; format: functional, cell-based; settings: dose 3-6 µM
[15] = test system: MDA-MB-231; assay: Induction of ROS production in human MDA-MB-231 cells at 1 to 4 uM incubated for 24 hrs by flow cytometry; format: functional, cell-based; settings: dose 1-4 µM
[16] = test system: MDA-MB-231; assay: Anti-tumor activity against human MDA-MB-231 cells assessed as change in TGF-beta1/Smad signaling pathway by measuring increase in TGF-beta1 level after 24 hrs incubation by Western blot analysis; format: functional, cell-based; settings: dose 1-4 µM
[17] = test system: MDA-MB-231; assay: Anti-tumor activity against human MDA-MB-231 cells assessed as change in TGF-beta1/Smad signaling pathway by measuring increase in p-Smad2 level after 24 hrs incubation by Western blot analysis; format: functional, cell-based; settings: dose 1-4 µM
[18] = test system: 4T1; assay: Anti-proliferative activity against mouse 4T1 cells assessed as cell viability measured after 24 hrs by MTT assay; format: functional, cell-based; settings: dose 1-8 µM
[19] = test system: MDA-MB-231; assay: Anti-metastatic activity in human MDA-MB-231 cells assessed as decrease in ZEB1 protein level at 1 to 4 uM by Western blotting analysis; format: functional, cell-based; settings: dose 1-4 µM
[20] = test system: MDA-MB-231; assay: Induction of mitochondrial membrane potential loss in human MDA-MB-231 cells assessed as increase in fluorescence intensity by JC-1 monomer assay; format: functional, cell-based; settings: dose 2-4 µM
[21] = test system: 4T1; assay: Induction of cell cycle arrest in mouse 4T1 cells assessed as accumulation of cells at G0/G1 phase measured after 24 hrs in presence of SB-431542 TGF-beta signaling inhibitor by PI staining by flow cytometry; format: functional, cell-based
[22] = test system: MDA-MB-231; assay: Anti-tumor activity against human MDA-MB-231 cells assessed as change in TGF-beta1/Smad signaling pathway by measuring increase in p-Smad3 level after 24 hrs incubation by Western blot analysis; format: functional, cell-based; settings: dose 1-4 µM
[23] = test system: MDA-MB-231; assay: Induction of DNA damage in human MDA-MB-231 cells assessed as increase in gamma-H2AX focal expression at 2 to 4 uM by immunofluorescence staining assay; format: functional, cell-based; settings: dose 2-4 µM
[24] = test system: MDA-MB-231; assay: Induction of cell cycle arrest in human MDA-MB-231 cells assessed as upregulation of p21 protein expression at 1 to 4 uM measured after 24 hrs by immunoblotting assay; format: functional, cell-based; settings: dose 1-4 µM
[25] = test system: 4T1; assay: Induction of apoptosis in mouse 4T1 cells assessed as increase in apoptotic rate at 6 uM incubated for 24 hrs by Annexin V-FITC/PI double staining by flow cytometry; format: functional
[26] = test system: 4T1; assay: Induction of apoptosis in mouse 4T1 cells assessed as increase in apoptotic rate incubated for 24 hrs in presence of SB-431542 TGF-beta signaling inhibitor by Annexin V-FITC/PI double staining by flow cytometry; format: functional, cell-based
[27] = test system: 4T1; assay: Induction of DNA damage in mouse 4T1 cells assessed as increase in gamma-H2AX focal expression at 2 to 4 uM by immunofluorescence staining assay; format: functional, cell-based; settings: dose 2-4 µM
[28] = test system: 4T1; assay: Induction of mitochondrial membrane potential loss in mouse 4T1 cells assessed as increase in fluorescence intensity by JC-1 monomer assay; format: functional, cell-based; settings: dose 2-4 µM
[29] = test system: MDA-MB-231; assay: Induction of cell cycle arrest in human MDA-MB-231 cells assessed as accumulation of cells at G0/G1 phase measured after 24 hrs in presence of SB-431542 TGF-beta signaling inhibitor by PI staining by flow cytometry; format: functional, cell-based
[30] = test system: 4T1; assay: Anti-invasive activity in mouse 4T1 cells assessed as reduction in cell invasion incubated for 24 hrs by Transwell assay; format: functional, cell-based; settings: dose 3-6 µM

O=C1C[C@@H](c2ccccc2)Oc2cc(O)c([C@H](/C=C/C[C@@H](O)CCc3ccccc3)c3ccccc3)c(O)c21
IC50 [1]: 5.27 µM | IC50 [2]: 2.2 µM | Activity [3]: Active | Activity [4]: Active | IC50 [5]: 2.82 µM | Activity [6]: Active | Activity [7]: Active | Activity [8]: 55.78% | Activity [9]: inactive | Activity [10]: 49.59% | inhibition [11]: Dose-Dependent Effect | IC50 [12]: 5.91 µM | Activity [13]: 46.4% | Activity [14]: Dose-Dependent Effect | Activity [15]: Active | Activity [16]: Dose-Dependent Effect | Activity [17]: Dose-Dependent Effect | Activity [18]: Dose-Dependent Effect | Activity [19]: Active | Activity [20]: Dose-Dependent Effect | Activity [21]: inactive | Activity [22]: Dose-Dependent Effect | Activity [23]: Active | Activity [24]: Active | Activity [25]: 48.24% | Activity [26]: inactive | Activity [27]: Active | Activity [28]: Dose-Dependent Effect | Activity [29]: inactive | Activity [30]: Dose-Dependent Effect
